The test system of assay [1] is human serum anti-DNP IgG (sAb). Put plainly: BLI Fc capture probe assay of CIR 3 covalent recruitment of serum anti-DNP IgG. The class given is binding. To be noted: 60 nM anti-DNP IgG enriched sample. The procedure: The ability of CIR 3 to recruit the tumour antigen PSMA to anti-DNP antibodies was measured using BLI. Anti-DNP IgG was isolated from human serum IgG (Cedarlane Labs) using affinity chromatography. The enriched anti-DNP antibody sample had 63.19 nM of anti-DNP antibody in 1.92 μM of total IgG. The enriched antibody sample was reacted with 2.5 μM of CIR 3 in PBS overnight at room temperature. A sample of 32.75 μM IgG that was depleted of anti-DNP antibody was also reacted with 2.5 μM of CIR 3 in PBS overnight at room temperature as a negative control. The BLI experiment was conducted using an Octet Red96 (ForteBio) with the temperature set at 25° C., the RPM set at 1000, and the acquisition rate set at 5 Hz. The isolated anti-DNP and CIR 3 reaction samples were suspended in 1×Kinetics Buffer (ForteBio) by doping in a 1:10 dilution of 10×Kinetics Buffer stock. A volume of 200 μL of each solution was loaded into a black flat-bottom 96-well plate (Grenier). Fc capture (ProG) biosensors from ForteBio were placed in 1×Kinetics Buffer for 20 minutes prior to the experiment for wetting. First, the probes were placed in 1×Kinetics Buffer for 4 minutes to establish a baseline. […] Association of PSMA to the probe was measured by submerging the probe in 500 nM PSMA for 10 minutes. Dissociation of PSMA from the probe was measured by submerging the probe in 1×Kinetics Buffer for 10 minutes. […]

Assay [2] has as its system PSMA+HEK cells. Put plainly: CD16α activation assay with pan human IgG as source of sAb. In kind it is cell-based. The conditions noted are these: pan IgG 230 μM, ~10 nM anti-DNP IgG. The procedure: Preparation of antibody-CIR/ARM stocks were mixed overnight prior to addition to the ADCC plate. In the case of mmAb and mAb, incubation was carried out at 600 nM antibody and 1.2 μM CIR or ARM. In the case of IgG from serum, incubation was completed at 230 μM antibody and 8.7 μM CIR or ARM. In all cases, DMSO was kept close to 1%. After the overnight incubation, a dilution series was completed on the antibody-CIR/ARM stocks in RPMI (1% DMSO). Target cells were seeded at a density of 2.5×10^4 cells per well in opaque 96 well flat-bottom plates (Corning Costar, 3917) in complete media. Sixteen hours after seeding, cells were washed gently with 100 μL of neat RPMI. To the cells, 25 μL of RPMI supplemented with 4% ultra-low IgG FBS was added followed by 25 μL of antibody+/−CIR/ARM conditions described above. After a 30-minute incubation, 25 μL of supplemented RPMI containing 7.5×10^4 Jurkat effector cells expressing human FcgRIlla (CD16) were added to each well. The plates were then incubated for 6 additional hours. 75 μL of Bio-Glo Luciferase Assay Reagent was added to each well, and luminescence was quantified using the SpectraMax i3 plate reader.
Depleted serum IgG is derived from pan serum human IgG passed through DNP coated beads to remove endogenous anti-DNP IgG. […]

Turning to `O=C(O)CC[C@H](NC(=O)N[C@@H](CCCCNC(=O)NCCOCCOCCOCCOCCOCCOCCOCCOC(=O)n1cnc(CCNC(=O)CNc2ccc([N+](=O)[O-])cc2[N+](=O)[O-])c1)C(=O)O)C(=O)O` [CIR 3], the “covalent labeling of enriched serum anti-DNP IgG” value in assay [1] is “substantial covalent antibody labeling and resultant PSMA binding to Fc capture probes”. For the same compound, in assay [2], the CD16α activation entry is “mediated efficient CD16α activation”.

For the origin of these results see patent publication US11827624B2, “Covalent immune recruiter compounds for immune cell recognition and associated uses” (McMaster University, priority 2020, dated 2023).
